# In US20130150434A1 (SOMAXON PHARMACEUTICALS, INC., priority 2006, published 2013):
# Experiments:
# [1] = Phase III study of doxepin, safety assessments (body weight, residual effects, withdrawal symptoms, laboratory tests, ECG); assay type: in vivo, human
# Description: Safety assessments including adverse events (AEs), vitals, and neurological assessments were performed throughout the study period. Other safety assessments, including clinical laboratory tests, electrocardiograms (ECGs), and physical examinations (PEs) were performed before and after the study treatment period. For early termination, all safety assessments, including AEs neurological assessments, clinical laboratory tests, ECGs, vitals, and PEs were performed.
# Safety: Safety was assessed based on AEs, clinical laboratory tests (hematology, serum chemistry, and urinalysis), vital signs, physical examinations, neurological assessments, 12-lead ECGs, and ratings of hangover/residual effects (digit-symbol substitution test (DSST), symbol copying test (SCT), and the visual analog scale (VAS) for sleepiness), assessment of rebound insomnia using PSG recordings during the discontinuation period, and withdrawal symptoms using the benzodiazepine withdrawal symptom questionnaire (BWSQ).
# Safety analyses included all randomized patients who received at least one dose of double-blind study medication. Treatment assignment for safety data was based on the treatment actually received.
# [2] = tested on: chronic primary insomnia patients with sleep maintenance difficulties; test: Phase III study of doxepin, subjective assessments by morning questionnaire (sWASO, LSO, sTST); conditions: ITT; for LSO (subjective latency to sleep onset), Mean (SD) / sTST (subjective total sleep time), Mean (SD) / sTST, Median / sWASO (subjective wake after sleep onset), Mean (SD): Baseline (mean of Days −5 and −4)
# Description: (§1) Patients with at least a 3-month history of primary insomnia, according to Diagnostic and Statistical Manual of Mental Disorders, Fourth Edition Text Revision (DSM-IV-TR)-defined primary insomnia were enrolled.
# (§2) After the PSG Screening and Baseline periods, patients began a 35-day double-blind treatment period during which they were given study drug supplies at each scheduled visit (Visits 4, 5, and 6). The scheduled study visits consisted of two consecutive nights of 8-hour PSG recording in the sleep center and next day assessments to assess sedative efficacy. Patients were asked to complete hangover/residual effects assessments, morning and evening questionnaires, and the Benzodiazepine Withdrawal Symptom Questionnaire (BWSQ) at each of these visits.
# Subjective Variables: Subjective assessments included data obtained on Days 2, 16, and 30, and included subjective TST (sTST), subjective WASO (sWASO), latency to sleep onset (LSO), subjective NAASO (sNAASO), and sleep quality (all assessed by a morning questionnaire), daytime functioning (assessed by an evening questionnaire), average nightly sTST during at-home administration (5 days before the PSG visit), CGI rating scale for Severity and Therapeutic Effect completed by the clinician and patient, and a measure of insomnia severity (assessed by ISI).
# (§3) Methods used to analyze other endpoints were the same as those used to analyze WASO. For LPS, latency to REM sleep, latency to Stage 2 sleep, and LSO, data were expected to be log-normally distributed and were analyzed using log-transformed values (base 10). The safety data were analyzed primarily using descriptive statistical methods.
# (§4) All efficacy analyses were performed on the Intent-to-treat (ITT) analysis set. […] Data were analyzed as randomized and based on observed cases.
# [3] = tested on: chronic primary insomnia patients with sleep maintenance difficulties; test: Phase III study of doxepin, 8-hour PSG efficacy variables (WASO, TST, SE, LPS)
# Description: as §1
# Patients were screened (Visit 1) to determine study eligibility and asked to discontinue any protocol-disallowed prescription or over-the-counter (OTC) medications used as sleep medication. At the beginning of the first week (polysomnography [PSG] Screening, Visit 2), eligible patients began two weeks of single-blind placebo dosing and had two consecutive nights of 8-hour PSG recording in the sleep center. Patients were required to meet the PSG screening criteria to remain eligible for the study. Patients were allowed to leave the sleep center during the day after the PSG Screening nights and continued to take single-blind placebo after PSG Screening (Visit 2) for five consecutive nights at home.
# Patients were allowed to leave the sleep center during the day after the PSG nights and continued taking single-blind placebo for five consecutive nights at home.
# as §2
# Primary Efficacy: The primary efficacy variable was wake after sleep onset (WASO) obtained on Night 1 as determined by PSG recordings using the ITT analysis set.
# Additional PSG efficacy variables: Additional efficacy variables obtained on the first PSG assessment nights (Nights 1 and 29) included WASO (Night 29), wake time during sleep (WTDS), total sleep time (TST), sleep efficiency (SE), including whole night, third of the night, and by hour, and latency to persistent sleep (LPS), latency to Stage 2 sleep, number of awakenings after sleep onset (NAASO), total wake time (TWT), wake time after sleep (WTAS), and, sleep architecture including percentage and minutes of Stage 1, 2, and 3/4 non-rapid eye movement (NREM) sleep, percentage and minutes of rapid eye movement (REM) sleep, and latency to REM sleep.
# as §3, §4
# [4] = doxepin 3 mg group, Baseline, ITT
# [5] = doxepin 3 mg, Night 1, ITT, p<0.0001 vs placebo
# [6] = doxepin 3 mg, Night 15, ITT, p 0.1977 vs placebo
# [7] = doxepin 3 mg, Night 29, ITT, p 0.0262 vs placebo
smiles,measurement,setting,value
"CN(C)CCC=C1c2ccccc2COc2ccccc21 [Doxepin, 11-(3-dimethylaminopropylidene)-6,11-dihydrodibenzo (b,e)oxepin]","Changes in other clinical laboratory tests, vital sign measurements, physical examinations, neurological assessments, or ECG parameters",[1]; 3 mg and 6 mg,no clinically relevant changes
same,Next day residual effects,[1]; 3 mg and 6 mg,no significant next day residual effects
same,Withdrawal effects,"[1]; 3 mg and 6 mg, abrupt discontinuation",no withdrawal effects
same,"Body Weight, Change from Screening, mean (±SD)",[1]; Doxepin HCl 3 mg,0.3 (2.21) kg
same,"Body Weight, Change from Screening, mean (±SD)",[1]; Doxepin HCl 6 mg,0.0 (2.19) kg
same,"LSO (subjective latency to sleep onset), Mean (SD)",[2]; Doxepin HCl 3 mg group,61.4 (39.43) minutes
same,"sTST (subjective total sleep time), Mean (SD)",[2]; Doxepin HCl 3 mg group,330.0 (63.23) minutes
same,"sTST, Median",[2]; Doxepin HCl 3 mg group,330.0 min
same,"sTST, Mean (SD)","[2]; Doxepin HCl 3 mg, Visit 4, Day 2, p 0.0169 vs placebo",361.8 (64.03) minutes
same,"LSO, Mean (SD)","[2]; Doxepin HCl 3 mg, Visit 4, Day 2, p 0.2296 vs placebo",50.3 (36.73) minutes
same,"sTST, Mean (SD)","[2]; Doxepin HCl 3 mg, Visit 5, Day 16, p 0.3260 vs placebo",361.0 (67.22) minutes
same,"LSO, Mean (SD)","[2]; Doxepin HCl 3 mg, Visit 5, Day 16, p 0.9838 vs placebo",52.9 (35.17) minutes
same,"LSO, Mean (SD)","[2]; Doxepin HCl 3 mg, Visit 6, Day 30, p 0.3567 vs placebo",48.9 (34.71) minutes
same,"sTST, Mean (SD)","[2]; Doxepin HCl 3 mg, Visit 6, Day 30, p 0.9972 vs placebo",360.7 (68.72) minutes
same,"LSO (subjective latency to sleep onset), Mean (SD)",[2]; Doxepin HCl 6 mg group,64.0 (43.45) minutes
same,"sTST (subjective total sleep time), Mean (SD)",[2]; Doxepin HCl 6 mg group,339.3 (61.45) minutes
same,"sTST, Median",[2]; Doxepin HCl 6 mg group,330.0 min
same,"sTST, Mean (SD)","[2]; Doxepin HCl 6 mg, Visit 4, Day 2, p 0.0256 vs placebo",369.0 (78.39) minutes
same,"LSO, Mean (SD)","[2]; Doxepin HCl 6 mg, Visit 4, Day 2, p 0.0960 vs placebo",55.7 (56.96) minutes
same,"sTST, Mean (SD)","[2]; Doxepin HCl 6 mg, Visit 5, Day 16, p 0.1611 vs placebo",371.5 (72.06) minutes
same,"LSO, Mean (SD)","[2]; Doxepin HCl 6 mg, Visit 5, Day 16, p 0.2689 vs placebo",48.7 (42.35) minutes
same,"sTST, Mean (SD)","[2]; Doxepin HCl 6 mg, Visit 6, Day 30, p 0.6831 vs placebo",373.0 (75.30) minutes
same,"LSO, Mean (SD)","[2]; Doxepin HCl 6 mg, Visit 6, Day 30, p 0.8242 vs placebo",48.3 (47.40) minutes
same,"sWASO (subjective wake after sleep onset), Mean (SD)",[2]; doxepin 3 mg group,80.6 (48.12) minutes
same,"sWASO, Mean (SD)","[2]; doxepin 3 mg, Visit 4, Day 2, p 0.0005 vs placebo",55.7 (39.81) minutes
same,"sWASO, Mean (SD)","[2]; doxepin 3 mg, Visit 5, Day 16, p 0.2582 vs placebo",59.0 (54.14) minutes
same,"sWASO, Mean (SD)","[2]; doxepin 3 mg, Visit 6, Day 30, p 0.8958 vs placebo",63.1 (47.24) minutes
same,"sWASO (subjective wake after sleep onset), Mean (SD)",[2]; doxepin 6 mg group,78.2 (43.06) minutes
same,"sWASO, Mean (SD)","[2]; doxepin 6 mg, Visit 4, Day 2, p 0.0007 vs placebo",54.9 (44.76) minutes
same,"sWASO, Mean (SD)","[2]; doxepin 6 mg, Visit 5, Day 16, p 0.3357 vs placebo",58.4 (49.09) minutes
same,"sWASO, Mean (SD)","[2]; doxepin 6 mg, Visit 6, Day 30, p 0.8020 vs placebo",58.2 (53.07) minutes
same,"Sedative tolerance (sleep maintenance variables across study visits, PSG)","[3]; 3 mg and 6 mg, 35-day double-blind treatment",no evidence of sedative tolerance
same,"8-hour WASO, Mean (SD)","[3]; doxepin 3 mg group, Baseline (single-blind placebo), ITT",67.8 (33.56) minutes
same,"LPS (latency to persistent sleep, PSG), Mean (SD)",[3]; [4],35.9 (29.84) minutes
same,"SE - Hour 8 (PSG), Mean (SD)",[3]; [4],74.9 (22.87) %
same,"TST (8-hour PSG), Mean (SD)",[3]; [4],380.3 (46.09) minutes
same,"8-hour WASO, Mean (SD)","[3]; doxepin 3 mg, Night 1 (primary), ITT, p<0.0001 vs placebo",41.4 (31.51) minutes
same,"LPS (PSG), Mean (SD)","[3]; doxepin 3 mg, Night 1, ITT, p 0.0110 vs placebo",26.7 (23.42) minutes
same,"SE (8-hour PSG), Mean (SD)",[3]; [5],86.5 (8.68) %
same,"SE - Hour 8 (PSG), Mean (SD)",[3]; [5],87.8 (14.28) %
same,"TST (8-hour PSG), Mean (SD)",[3]; [5],415.3 (41.65) minutes
same,"8-hour WASO, Mean (SD)","[3]; doxepin 3 mg, Night 15, ITT, p 0.0053 vs placebo",44.8 (27.26) minutes
same,"SE (8-hour PSG), Mean (SD)",[3]; [6],83.7 (10.12) %
same,"TST (8-hour PSG), Mean (SD)",[3]; [6],401.7 (48.56) minutes
same,"LPS (PSG), Mean (SD)","[3]; doxepin 3 mg, Night 15, ITT, p 0.3644 vs placebo",38.2 (40.52) minutes
same,"SE (8-hour PSG), Mean (SD)",[3]; [7],85.0 (10.92) %
same,"TST (8-hour PSG), Mean (SD)",[3]; [7],408.1 (52.41) minutes
same,"8-hour WASO, Mean (SD)","[3]; doxepin 3 mg, Night 29, ITT, p 0.0299 vs placebo",47.3 (43.53) minutes
same,"SE - Hour 8 (PSG), Mean (SD)","[3]; doxepin 3 mg, Night 29, ITT, p 0.0524 vs placebo",81.9 (20.81) %
same,"LPS (PSG), Mean (SD)","[3]; doxepin 3 mg, Night 29, ITT, p 0.9008 vs placebo",28.0 (25.99) minutes
